# Test results reported in US10294212B2 (CURADEV PHARMA PRIVATE LTD., priority 2013, dated 2019).
# pIC50: −log10 of the molar value. Like-named read-outs stand apart in the source and are kept apart here.
# Tests used:
# CT-26 tumor cells = assay: Antitumor activity in syngeneic CT26/Balb/C tumor model; format: in vivo, Balb/c mice; settings: for reduction of tumor growth: vs control animals
# Protocol: Tumor volume reduction by the test compounds was evaluated in a syngeneic CT26/Balb/C tumor model as described below. Balb/c mice were purchased from Vivo Bio Tech, Hyderabad, India, and housed in sterile conditions using an individually ventilated caging system manufactured by Citizen Industries Limited, Ahmedabad, India. Mice were quarantined for at least 7 days before experimentation.
# Mouse colorectal tumor forming cells, CT-26 cells (ATCC, USA), were cultured in DMEM and 10% FBS medium supplemented with lx non-essential amino acid (HiMedia) in an incubator maintained at 37QC with 95% humidity and 5% CO2. One million (1×10^6) live syngeneic CT-26 cells suspended in 0.2 ml of […] were injected subcutaneously in the right flank of each Balb/c mouse (age 6-8 weeks, weight: about 18-20 g) on day 1 under anesthesia. Eight to ten mice were used per experimental group. Subcutaneous cells formed localized tumors. Animals were visually inspected twice a day. Tumor measurements were initiated 7 days post injection using Vernier calipers. Tumor sizes at day 7 ranged typically from 80-150 mm^3. Tumor dimensions were subsequently measured every 3 to 4 days and tumor volume was determined. Assuming tumors to be ellipsoid, tumor volume was calculated using the formula: V=(D×d×d)/2
# Where D is longest diameter in mm, and d is shortest diameter in mm.
# When the average tumor volume in the mice reached 100-120 mm^3, tumor bearing mice were randomized for treatment with either test compound or vehicle alone. Test compounds were formulated generally in normal saline comprising Polyethylene Glycol (PEG400), Propylene glycol (PG) and Dimethyl Acetamide (DACM) at pH 4.5-5.0 and dosed orally at ranges 40-75 mg/kg (dose volume—5 mL/kg) twice a day. Solutions of the compounds were prepared immediately before dosing the animals. In general, tumor volume was measured at various times post-dosing from day 1 to day 34.
# A non-limiting example is provided. Tumor bearing mice were dosed orally twice a day at 40 mg/kg body weight with either vehicle control or test compound 2 formulated in 30% Polyethylene Glycol (PEG-400), 20% Propylene glycol (PG) in normal saline. Tumors were measured and tumor volumes were determined at 1, 4, 6, 9, 11, and 14 days after the first dose as described above. Animals were sacrificed on day 14. Tumor and blood samples were harvested for further analysis. Just prior to animal sacrifice, blood was drawn retro-orbitally into a tube containing 0.2% EDTA for plasma collection. The harvested tumors were weighed and snap frozen in liquid nitrogen immediately. Plasma KYN concentrations are measured for pharmacokinetic analysis using LC/MS/MS using an API4000 mass spectrometer (Applied Biosystems) coupled to a Shimadzu Prominence LC system fitted with a C18 column.
# [1] = molecular target: Human indoleamine 2,3-dioxygenase-2 (hIDO2) (Homo sapiens (Human), UniProt Q6ZQW0); assay: In-vitro IDO2 enzyme assay; format: biochemical
# Excerpt: Human indoleamine 2,3-dioxygenase-2 (hIDO2) catalyzes the oxidative cleavage of the pyrrole ring of the indole nucleus of tryptophan to yield N-formylkynurenine which can be converted to kynurenine (KYN) by deformylation. hIDO2 with an C-terminal His tag (Sino Biological Inc (China)) was expressed in E. coli cells and the protein was purified using standard methods well known in the art. Unless otherwise stated, all materials were procured from Sigma Aldrich, Mo., USA.
# The assay monitoring the conversion of L-tryptophan to KYN was carried out as follows. hIDO2 (160 nM) was incubated with tryptophan (5000 04) in the presence of ascorbic acid (20 mM), methylene blue (10 04) and catalase (100 μg/mL) in potassium phosphate buffer (100 mM; pH 7.5) at 37 degrees C. for 30 min. The reaction was terminated with 30% trichloroacetic acid (TCA) and further incubated at 65 degrees C. for 15 min to fully convert N-formylkynurenine to KYN. The reaction mixture was then centrifuged to remove sediments, and the KYN in the supernatant was measured by UV-visible absorption spectroscopy at 360 nm using a Waters HPLC system fitted with a C-18 column or by LC/MS/MS (C. J. D Austin et. Al, Amino Acid 2009, 565-578).
# Percent inhibition at each concentration of test compounds was determined by determining the decrease in KYN with reference to the reaction control with 1% DMSO vehicle. Data were analyzed using nonlinear regression to generate IC50 values using Graph Pad Prism® 5. Compounds 2 and 184 were tested as described above.
# [2] = Brain penetration in rats; format: in vivo, Sprague-Dawley rats; settings: rat, single i.v. 10 mg/kg
# Protocol: ii. Brain penetration in rats: Early and accurate prediction of drug penetration of the blood brain barrier is vital for the development of drugs targeting the central nervous system. Accordingly, ability of the compounds of the invention to penetrate the blood brain barrier was tested according to the methods well established in the art (Giorgetti et al., (2010) JPET 333:748-757, 2010). Briefly, Sprague-Dawley rats (n=3 per time point studied) were administered a single intravenous dose of the test compounds 2 or 97 formulated in 40% PEG and 20% PG at 10 mg/kg. Three rats were used for each of the following time points post-dosing: 0.5 hr, 1.5 hr and 3.0 hrs. First, blood was collected during deep anesthesia in heparinized tubes, and then animals were sacrificed and their brains were harvested. The brains were then pulverized in liquid nitrogen and homogenized in fixed volumes of ice cold homogenization buffer (10% Acetonitrile, 0.1% formic acid in water). Plasma was separated from blood using standard procedures. Plasma and brain concentrations of test compounds 2 and 97 were determined by LC/MS/MS using an API 4000 or AP15500 Qtrap mass spectrometer. Brain/Plasma ratio of test compounds 2 and 97 were determined after normalizing brain weight and buffer volume.
# [3] = tested on: plasma and tumor tissue KYN; assay: Tumor penetration: KYN levels in tumor and plasma, CT26/Balb/C tumor model; format: in vivo, Balb/c mice; settings: 50 mg/kg oral BID 4 days, vs vehicle; for plasma KYN levels reduced: 2 hours post-dosing
# Protocol: i. Tumor penetration in mice: Tumor penetration of test compounds and KYN levels in tumor and plasma of treated animals were determined in a syngeneic CT26/Balb/C tumor model. Briefly, three to four tumor bearing Balb/c mice (tumor size=150-200 mm^3) were dosed twice a day orally for 4 days with test compound (for e.g., compound 2) at 50 mg/kg formulated in carboxymethyl cellulose (CMC). A vehicle control was included along with the test compounds. Blood samples were collected by retro-orbital bleed or terminal cardiac bleed into tubes containing heparin just before the final dose and at two hours after the final dose. Animals were sacrificed two hours post-final dose. Tumors were harvested and weighed immediately. Tumors were then snap frozen in liquid nitrogen, pulverized and dissolved in homogenization buffer (chilled acetonitrile/water/formic acid (10:90:0.1 v/v/v) to extract test compounds and kynurenine, KYN.
# Plasma and tumor tissue KYN levels were reduced in test compound treated animals compared to control vehicle-treated animals (TABLE 7). For example, compounds 2 and 97 each reduced tumor KYN levels by 81%. At 2 hours post-dosing, the plasma KYN levels were reduced by 62% and 67% respectively in the animals treated with compound 2 or 97 compared to the control animals dosed with vehicle alone. The concentration of test compounds in the tumor tissue extracts is determined by LC/MS/MS using an API 4000 or AP15500 Qtrap mass spectrometer.
# [4] = IDO2 Enzyme assay, read-out: IC50 values IDO2
# [5] = IDO2 enzyme assay, read-out: IDO2 IC50
# Human indoleamine 2,3-dioxygenase-2 (hIDO2), sequence (Q6ZQW0 whole entry): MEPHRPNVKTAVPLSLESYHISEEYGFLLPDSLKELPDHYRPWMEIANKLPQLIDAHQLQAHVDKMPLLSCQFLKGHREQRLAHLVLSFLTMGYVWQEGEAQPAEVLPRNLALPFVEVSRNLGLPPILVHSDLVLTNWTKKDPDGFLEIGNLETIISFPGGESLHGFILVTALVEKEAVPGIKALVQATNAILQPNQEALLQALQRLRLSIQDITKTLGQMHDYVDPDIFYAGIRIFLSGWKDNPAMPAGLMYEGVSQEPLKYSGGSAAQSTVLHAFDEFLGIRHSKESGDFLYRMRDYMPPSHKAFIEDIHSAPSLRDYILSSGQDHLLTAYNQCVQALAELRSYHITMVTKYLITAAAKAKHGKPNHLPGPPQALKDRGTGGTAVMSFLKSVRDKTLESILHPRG
smiles,measurement,setting,value
"Nc1oc2c(-c3ccncc3)nccc2c1Nc1ccc(F)c(F)c1 [Compound 184, N^3-(3,4-difluorophenyl)-7-(pyridin-4-yl)furo[2,3-c]pyridine-2,3-diamine]",reduction of tumor growth,CT-26 tumor cells; 50 mg/kg oral BID,26%-38
same,pIC50,[1]; [4],> 6.00
same,pIC50,[1]; [5],> 6.00
"Nc1oc2cnccc2c1Nc1ccc(F)c(Cl)c1 [Compound 2, N^3-(3-Chloro-4-fluoro-phenyl)-furo[2,3-c]pyridine-2,3-diamine]",blood brain barrier penetration,[2],capable of penetrating blood brain barrier
same,tumor growth,"CT-26 tumor cells; 40 mg/kg oral BID, over 14 days, vs vehicle",significantly decreased tumor growth
same,tumor KYN levels reduced,[3],81%
same,plasma KYN levels reduced,[3],62%
same,pIC50,[1]; [4],> 6.00
same,pIC50,[1]; [5],> 6.00
"Nc1oc2c(-c3ccncc3)nccc2c1Nc1ccc(F)c(Cl)c1 [Compound 97, N^3-(3-Chloro-4-fluorophenyl)-7-(pyridin-4-yl)furo[2,3-c]pyridine-2,3-diamine]",blood brain barrier penetration,[2],capable of penetrating blood brain barrier
same,reduction of tumor growth,CT-26 tumor cells; 75 mg/kg oral BID,26%-38
same,tumor KYN levels reduced,[3],81%
same,plasma KYN levels reduced,[3],67%
